Assay results published in patent US20060142247A1, “Tricyclic heterocycles” (priority 2004, published 2006).

Columns and labels:
Aurora A = target: T1, Aurora A (Homo sapiens, UniProt O14965); assay: IC50 determination for inhibitors of Aurora A (96 MTP-ELISA); type: biochemical; details: His4-tagged full-length Aurora A 250 ng/ml, PKB-GSK2 200 nM, ATP 4 μM, 90 min room temperature, read-out: IC50 Aurora A kinase inhibition
T1 construct: C-terminally Histidine4 (His4)-tagged Aurora A full-length protein; His4 (C)
T1 sequence (O14965 1-403): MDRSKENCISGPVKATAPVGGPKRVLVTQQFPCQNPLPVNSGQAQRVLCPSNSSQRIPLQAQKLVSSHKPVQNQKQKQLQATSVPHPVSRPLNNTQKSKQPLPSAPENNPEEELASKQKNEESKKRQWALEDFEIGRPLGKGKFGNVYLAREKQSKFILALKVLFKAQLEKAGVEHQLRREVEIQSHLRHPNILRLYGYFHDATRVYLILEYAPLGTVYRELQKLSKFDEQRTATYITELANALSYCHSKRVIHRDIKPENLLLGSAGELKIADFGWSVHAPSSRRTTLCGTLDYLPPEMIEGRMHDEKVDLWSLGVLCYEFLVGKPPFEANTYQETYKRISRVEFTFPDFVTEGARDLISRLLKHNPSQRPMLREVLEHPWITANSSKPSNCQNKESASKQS
Procedure: Aurora A is a serine threonine kinase involved in spindle assembly and chromosome segregation. The assay is a typically ELISA-type assay where biotinylated substrate (PKB-GSK2) is phosphorylated. Phosphorylation is detected by peroxidase (POD) labelled polyclonal antibody (PAK<M-Ig>S-IgG-POD) and phosphopeptide monoclonal antibody (Mab) (MAK<P-GSK>M-27E5-IgG). The assay is validated for IC50-determination.
Assay plates: 96-well polystyrene plates, streptavidin-coated,
Samples: 10 mM in dimethylsulfoxide (DMSO)
Aurora A-His-4: C-terminally Histidine4 (His4)-tagged Aurora A full-length protein, stock solution 0.7 mg/ml, final conc.: 250 ng/ml
PKB-GSK2: biotinylated peptide derived from human GSK3-alpha sequence (Biotin-SGRARTSSFAEPGG-CONH2), stock solution 600 μM, final conc.: 200 nM
PAK<M-Ig>S-IgG-POD: Anti-mouse IgG, horse radish peroxidase(HRP)-linked Antibody, diluted in 3% BSA/PBS-T (1:10000), (Cell Signaling, Cat. No.: 7076)
MAK<P-GSK>M-27E5-IgG: Phospho-GSK-3-alpha (Ser 21) (27E5) Monoclonal Antibody, stock solution 1.85 mg/ml, diluted in 3% BSA/PBS-T (1:6000), final conc.: 0.31 μg/ml, (Cell Signaling, Cat. No.: 9337B)
ATP: Adenosine-5′-triphosphate 1 mM, diluted in kinase buffer, (Roche Diagnostics GmbH, Cat. No.: 127531-001,), final conc.: 4 μM
TRIS: 2-Amino-2-hydroxymethyl-1,3-propoanediol (“tris-(hydroxymethyl)-aminomethane”) (MERCK, Cat. No.: 108382.2500)
BSA: Bovine Serum Albumin Fraction V, fatty acid free (Roche Diagnostics GmbH, Cat. No. 9100221)
EDTA Titriplex III (di-Sodium-EDTA di-Hydrate), 120 mM, (MERCK, Cat. No.: 1.08418.1000)
ABTS buffer: ABTS (2,2′-azino-bis(3-ethylbenzthiazoline-6-sulfonic acid)) 16.7 mg/ml (Roche Diagnostics GmbH, Cat. No.: 1204530) • ABTS tablets: dissolve one ABTS tablet in 50 ml of working solution (ABTS buffer) (Roche Diagnostics GmbH, Cat. No.: 1112422 ) • Tween 20: Polysorbat 20 (Roche Diagnostics GmbH, Cat. No.: 10006394-001) • DTT: 1,4-Dithiothreitol (Roche Diagnostics GmbH, Cat. No.: 197777) • MgCl2×6H2O MERCK, Cat. No.: 105833.1000 • Kinase buffer: 50 mM TRIS, 10 mM MgCl2, 1 mM DTT, 0.1% Tween 20, pH 7.8 PBS-T (=Wash buffer) (PBS-T)10 g/l PBS(Phosphate buffered saline) with 0.033% Tween 20 • 3% BSA/PBS-T: 3% BSA dissolved in PBS-T Method
This assay is performed in 96-well format for IC50 determination with 5 samples (each with 8 concentrations by twofold testing), 100 μl incubation volume and the following plate layout:
S samples, with ATP, 1% DMSO, final conc.: a=100 μM, b=20 μM, c=4 μM, d=0.8 μM, e=0.16 μM, f=0.032 μM, g=0.0064 μM, h=0.00128 μM Step/Action • (1) Sample preparation: add 24 μl per well samples (descending sequence) diluted in kinase buffer to assay plate (final conc. for DMSO 1%). • 2. Add directly 16 μl Aurora-A-his-4 diluted in kinase buffer to assay plate. • 3. Add directly 40 μl per well PKB-GSK2/ATP mixture to assay plate, (final conc.: Aurora A=250 ng/ml, GSK2=200 nM, ATP=4 μM). Negative control: without ATP. • 4. Incubate assay plate for exactly 90 min at room temperature. • 5. Stop reaction by adding 20 μl EDTA in all wells. • 6. Wash assay plate 3× with 200 μl washing buffer per well. • 7. Add 100 μl MAK<P-GSK>M27E5-IgG (1:10000) and PAK<M-Ig>S-IgG-POD (1:6000) dissolved in 3% BSA/PBS-T to assay plate per well. • 8. Incubate assay plate for 60 min at room temperature. • 9. Wash assay plate 3× with 200 μl washing buffer per well • 10. Add 100 μl ABTS solution to assay plate per well, incubate for approx. 4 min at RT on MTP shaker. • 11. Measure absorption at 405/492 nm. • 12. Calculate % inhibition as: (1−(Esample−ENC)/(EPC−ENC))×100 1)
13. Calculate IC50 using a non-linear curve fit (XLfit software (ID Business Solution Ltd., Guilford, Surrey, UK))

HCT 116 cells = assay: Viability assay HCT 116 cells (CellTiter-Glo); type: cell-based; details: Homo sapiens, HCT-116, 120 h, HCT 116 human colon carcinoma cells, 5 days incubation, CellTiter-Glo luminescence
Procedure: Viability Assay—HCT 116 Cells
A viability assay was performed using the CellTiter-Glo® Luminescent Cell Viability Assay (see Promega Corporation's Technical Bulletin No. 288, pp. 1-11 [revised 2/04] which is hereby incorporated by reference in its entirety). This assay is a homogeneous method of determining the number of viable cells in culture based on quantitation of the ATP present, an indicator of metabolically active cells. The assay is designed for use with multiwell formats, making it ideal for automated high-throughput screening (HTS), cell proliferation and cytotoxicity assays. The homogeneous assay procedure involves adding a single reagent (containing luciferase, luciferan substrate, and buffer) directly to cells cultured in serum-supplemented medium. Cell washing, removal of medium and multiple pipetting steps are not required. The system detects as few as 15 cells/well in a 384-well format in 10 minutes after adding reagent and mixing.
The homogeneous “add-mix-measure” format results in cell lysis and generation of a luminescent signal proportional to the amount of ATP present. The amount of ATP is directly proportional to the number of cells present in culture. The above-referenced assay generates a “glow-type” luminescent signal, produced by the luciferase reaction, which has a half-life generally greater than five hours, depending on cell type and medium used. The extended half-life eliminates the need to use reagent injectors and provides flexibility for continuous or batch mode processing of multiple plates. The unique homogeneous format avoids errors that may be introduced by other ATP measurement methods that require multiple steps.
HCT 116 cells (human colon carcinoma, ATCC-No. CCl-247) were cultivated in RPMI 1640 medium with GlutaMAX™ I (cell culture media that contains L-Alanyl-L-Glutamine [a stabilized a form/source of L-Glutamine] from Invitrogen, Cat-No. 61870-010), 2.5% Fetal Calf Serum (FCS, Sigma Cat-No. F4135 (FBS)); 100 Units/ml penicillin/100 μg/ml streptomycin (=Pen/Strep from Invitrogen Cat. No. 15140). For the assay the cells were seeded in 384 well plates, 1000 cells per well, in the same medium. The next day the test compounds were added in various concentrations ranging from 30 μM to 0.0015 μM (10 concentrations, 1:3 diluted). After 5 days the viability assay was done according to the instructions of the manufacturer. In brief: the cell-plate was equilibrated to room temperature for approximately 30 minutes and than the reagent (containing luciferase, luciferan substrate, and buffer) was added. The contents were carefully mixed for 15 minutes to induce cell lysis. After 45 minutes the luminescent signal was measured in Victor 2, (scanning multiwell spectrophotometer, Wallac).
Medium: RPMI 1640 with cell culture media containing L-Alanyl-L-Glutamine [GlutaMAX™ I (Invitrogen, Cat-Nr. 61870)], 5% FCS (Sigma Cat.-No. F4135), Pen/Strep (Invitrogen, Cat No. 15140). • HCT116 (ATCC-No. CCl-247): 1000 cells in 60 μl per well of 384 well plate (Greiner 781098, μClear-plate white) • After seeding incubate plates 24 h at 37° C., 5% CO2 2nd. Day: Induction (Treatment with Compounds, 10 Concentrations):
In order to achieve a final concentration of 30 μM as highest concentration […] of 10 mM compound stock solution were added directly to 163 μl media. Then step e) of the dilution procedure described below, was followed.

IC50 (Aurora A) [nM]	IC50 (HCT 116 cells) [nM]	Compound
1 to 100	–	COCCN1C(=O)C(C)(C)c2cc3nc(-c4n[nH]c5ccccc45)[nH]c3cc21 [Example 18, 2-(1H-Indazol-3-yl)-5-(2-methoxy-ethyl)-7,7-dimethyl-5,7-dihydro-3H-imidazo[4,5-f]indol-6-one]
1 to 100	–	CC1(C)C(=O)N(Cc2cccnc2)c2cc3[nH]c(-c4n[nH]c5ccccc45)nc3cc21 [Example 16, 2-(1H-Indazol-3-yl)-7,7-dimethyl-5-pyridin-3-ylmethyl-5,7-dihydro-3H-imidazo[4,5-f]indol-6-one]
1 to 100	–	CC1(C)C(=O)N(CCNC(=O)c2ccccc2)c2cc3[nH]c(-c4n[nH]c5ccccc45)nc3cc21 [Example 53, N-{2-[2-(1H-Indazol-3-yl)-7,7-dimethyl-6-oxo-6,7-dihydro-3H-imidazo[4,5-f]indol-5-yl]-ethyl}-benzamide]
1 to 100	–	CC1(C)C(=O)N(CC(=O)NCC(O)CO)c2cc3[nH]c(-c4n[nH]c5ccccc45)nc3cc21 (stereo not drawn) [Example 48, N-(2,3-Dihydroxy-propyl)-2-[2-(1H-indazol-3-yl)-7,7-dimethyl-6-oxo-6,7-dihydro-3H-imidazo[4,5-f]indol-5-yl]-acetamide]
1 to 100	–	CN1CCN(C(=O)CN2C(=O)C(C)(C)c3cc4nc(-c5n[nH]c6ccccc56)[nH]c4cc32)CC1 [Example 42, 2-(1H-Indazol-3-yl)-7,7-dimethyl-5-[2-(4-methyl-piperazin-1-yl)-2-oxo-ethyl]-5,7-dihydro-3H-imidazo[4,5-f]indol-6-one]
1 to 100	–	CN(C)CCNC(=O)CN1C(=O)C(C)(C)c2cc3nc(-c4n[nH]c5ccccc45)[nH]c3cc21 [Example 38, N-(2-Dimethylamino-ethyl)-2-[2-(1H-indazol-3-yl)-7,7-dimethyl-6-oxo-6,7-dihydro-3H-imidazo[4,5-f]indol-5-yl]-acetamide]
1 to 100	–	CC1(C)C(=O)N(CC(=O)N2CCCCC2)c2cc3[nH]c(-c4n[nH]c5ccccc45)nc3cc21 [Example 44, 2-(1H-Indazol-3-yl)-7,7-dimethyl-5-(2-oxo-2-piperidin-1-yl-ethyl)-5,7-dihydro-3H-imidazo[4,5-f]indol-6-one]
1 to 100	–	CC1(C)C(=O)N(CC(O)CN2CCOCC2)c2cc3[nH]c(-c4n[nH]c5ccccc45)nc3cc21 (stereo not drawn) [Example 29, 5-(2-Hydroxy-3-morpholin-4-yl-propyl)-2-(1H-indazol-3-yl)-7,7-dimethyl-5,7-dihydro-3H-imidazo[4,5-f]indol-6-one]
–	640	CCN1C(=O)CC(C)(C)c2cc3nc(-c4n[nH]c5ccccc45)[nH]c3cc21 [Example 14, 5-Ethyl-2-(1H-indazol-3-yl)-8,8-dimethyl-3,5,7,8-tetrahydro-imidazo[4,5-g]quinolin-6-one]
–	1000 to 10000	CN1CCN(C(=O)NCCN2C(=O)C(C)(C)c3cc4nc(-c5n[nH]c6ccccc56)[nH]c4cc32)CC1 [Example 59, 4-Methyl-piperazine-1-carboxylic acid {2-[2-(1H-indazol-3-yl)-7,7-dimethyl-6-oxo-6,7-dihydro-3H-imidazo[4,5-f]indol-5-yl]-ethyl}-amide]
–	1000 to 10000	CCN1C(=O)C(C)(C)c2cc3nc(-c4n[nH]c5cc(C(N)=O)ccc45)[nH]c3cc21 [Example 110, 3-(5-Ethyl-7,7-dimethyl-6-oxo-3,5,6,7-tetrahydro-imidazo[4,5-f]indol-2-yl)-1H-indazole-6-carboxylic acid amide]
–	100 to 1000	CCN1C(=O)C(C)(C)c2cc3nc(-c4n[nH]c5ccc(C(=O)N6CCSCC6)cc45)[nH]c3cc21 [Example 95, 5-Ethyl-7,7-dimethyl-2-[5-(thiomorpholine-4-carbonyl)-1H-indazol-3-yl]-5,7-dihydro-3H-imidazo[4,5-f]indol-6-one]
